One test deals with T1, CDK9/CycT1 (Homo sapiens, UniProt P50750).
T1 construct: Recombinant full-length His-tagged human CDK9 and CycT1; His; purchased Invitrogen PV4131; host or cells: insect cells
The experiment in a line: CDK9/CycT1 high ATP kinase assay (TR-FRET, Method 1b). The test is classed as biochemical. The settings on record: 2 mM ATP; for IC50: Method 1b; for Selectivity high ATP CDK9 over high ATP CDK2: IC50 (high ATP CDK2)/IC50 (high ATP CDK9): Methods 1b and 2b. The procedure:
1b. CDK9/CycT1 High ATP Kinase Assay
CDK9/CycT1-inhibitory activity of compounds of the present invention at a high ATP concentration after preincubation of enzyme and test compounds was quantified employing the CDK9/CycT1 TR-FRET assay as described in the following paragraphs.
Recombinant full-length His-tagged human CDK9 and CycT1, expressed in insect cells and purified by Ni-NTA affinity chromatography, were purchase from Invitrogen (Cat. No PV4131). As substrate for the kinase reaction biotinylated peptide biotin-Ttds-YISPLKSPYKISEG (C-terminus in amid form) was used which can be purchased e.g. from the company JERINI peptide technologies (Berlin, Germany).
For the assay 50 nl of a 100 fold concentrated solution of the test compound in DMSO was pipetted into a black low volume 384 well microtiter plate (Greiner Bio-One, Frickenhausen, Germany), 2 μl of a solution of CDK9/CycT1 in aqueous assay buffer [50 mM Tris/HCl pH 8.0, 10 mM MgCl2, 1.0 mM dithiothreitol, 0.1 mM sodium ortho-vanadate, 0.01% (v/v) Nonidet-P40 (Sigma)] were added and the mixture was incubated for 15 min at 22° C. to allow pre-binding of the test compounds to the enzyme before the start of the kinase reaction. […] The concentration of CDK9/CycT1 was adjusted depending of the activity of the enzyme lot and was chosen appropriate to have the assay in the linear range, typical concentrations were in the range of 0.5 μg/mL. The reaction was stopped by the addition of 5 μl of a solution of TR-FRET detection reagents (0.2 μM streptavidine-XL665 [Cisbio Bioassays, Codolet, France] and 1 nM anti-RB(pSer807/pSer811)-antibody from BD Pharmingen [#558389] and 1.2 nM LANCE EU-W1024 labeled anti-mouse IgG antibody [Perkin-Elmer, product no. AD0077]) in an aqueous EDTA-solution (100 mM EDTA, 0.2% (w/v) bovine serum albumin in 100 mM HEPES pH 7.5).
The resulting mixture was incubated 1 h at 22° C. to allow the formation of complex between the phosphorylated biotinylated peptide and the detection reagents. Subsequently the amount of phosphorylated substrate was evaluated by measurement of the resonance energy transfer from the Eu-chelate to the streptavidine-XL. Therefore, the fluorescence emissions at 620 nm and 665 nm after excitation at 350 nm was measured in a HTRF reader, e.g. a Rubystar (BMG Labtechnologies, Offenburg, Germany) or a Viewlux (Perkin-Elmer). The ratio of the emissions at 665 nm and at […] was taken as the measure for the amount of phosphorylated substrate. The data were normalised (enzyme reaction without inhibitor=0% inhibition, all other assay components but no enzym=100% inhibition).

The next test deals with T2, CDK2/CycE (Homo sapiens, UniProt P24941).
T2 construct: GST; purchased ProQinase GmbH (Freiburg, Germany); host or cells: insect cells (Sf9)
Briefly: CDK2/CycE high ATP kinase assay (TR-FRET, Method 2b). The settings on record: 2 mM ATP. It is filed as biochemical. The procedure:
2b. CDK2/CycE High ATP Kinase Assay:
CDK2/CycE-inhibitory activity of compounds of the present invention at 2 mM adenosine-tri-phosphate (ATP) was quantified employing the CDK2/CycE TR-FRET (TR-FRET=Time Resolved Fluorescence Resonance Energy Transfer) assay as described in the following paragraphs.
Recombinant fusion proteins of GST and human CDK2 and of GST and human CycE, expressed in insect cells (Sf9) and purified by Glutathion-Sepharose affinity chromatography, were purchase from ProQinase GmbH (Freiburg, Germany). As substrate for the kinase reaction biotinylated peptide biotin-Ttds-YISPLKSPYKISEG (C-terminus in amid form) was used which can be purchased e.g. from the company JERINI peptide technologies (Berlin, Germany).
For the assay 50 nl of a 100 fold concentrated solution of the test compound in DMSO was pipetted into a black low volume 384 well microtiter plate (Greiner Bio-One, Frickenhausen, Germany), 2 μl of a solution of CDK2/CycE in aqueous assay buffer [50 mM Tris/HCl pH 8.0, 10 mM MgCl2, 1.0 mM dithiothreitol, 0.1 mM sodium ortho-vanadate, 0.01% (v/v) Nonidet-P40 (Sigma)] were added and the mixture was incubated for 15 min at 22° C. to allow pre-binding of the test compounds to the enzyme before the start of the kinase reaction. Then the kinase reaction was started by the addition of 3 μl of a solution ATP (3.33 mM=>final conc. in the 5 μl assay volume is 2 mM) and substrate (1.25 μM=>final conc. in the 5 μl assay volume is 0.75 μM) in assay buffer and the resulting mixture was incubated for a reaction time of 25 min at 22° C. The concentration of CDK2/CycE was adjusted depending of the activity of the enzyme lot and was chosen appropriate to have the assay in the linear range, typical concentrations were in the range of 15 ng/ml. The reaction was stopped by the addition of 5 μl of a solution of TR-FRET detection reagents (0.2 μM streptavidine-XL665 [Cisbio Bioassays, Codolet, France] and 1 nM anti-RB(pSer807/pSer811)-antibody from BD Pharmingen [#558389] and 1.2 nM LANCE EU-W1024 labeled anti-mouse IgG antibody [Perkin-Elmer, product no. AD0077, as an alternative a Terbium-cryptate-labeled anti-mouse IgG antibody from Cisbio Bioassays can be used]) in an aqueous EDTA-solution (100 mM EDTA, 0.2% (w/v) bovine serum albumin in 100 mM HEPES pH 7.5).
The resulting mixture was incubated 1 h at 22° C. to allow the formation of complex between the phosphorylated biotinylated peptide and the detection reagents. Subsequently the amount of phosphorylated substrate was evaluated by measurement of the resonance energy transfer from the Eu-chelate to the streptavidine-XL. Therefore, the fluorescence emissions at 620 nm and 665 nm after excitation at 350 nm were measured in a TR-FRET reader, e.g. a Rubystar (BMG Labtechnologies, Offenburg, Germany) or a Viewlux (Perkin-Elmer). The ratio of the emissions at 665 nm and at […] was taken as the measure for the amount of phosphorylated substrate. The data were normalised (enzyme reaction without inhibitor=0% inhibition, all other assay components but no enzym=100% inhibition).
In general terms: TR-FRET usually uses a lanthanide donor and a delayed reading to cut background.

SMILES strings stand for the structures.

T1 sequence (P50750 whole entry): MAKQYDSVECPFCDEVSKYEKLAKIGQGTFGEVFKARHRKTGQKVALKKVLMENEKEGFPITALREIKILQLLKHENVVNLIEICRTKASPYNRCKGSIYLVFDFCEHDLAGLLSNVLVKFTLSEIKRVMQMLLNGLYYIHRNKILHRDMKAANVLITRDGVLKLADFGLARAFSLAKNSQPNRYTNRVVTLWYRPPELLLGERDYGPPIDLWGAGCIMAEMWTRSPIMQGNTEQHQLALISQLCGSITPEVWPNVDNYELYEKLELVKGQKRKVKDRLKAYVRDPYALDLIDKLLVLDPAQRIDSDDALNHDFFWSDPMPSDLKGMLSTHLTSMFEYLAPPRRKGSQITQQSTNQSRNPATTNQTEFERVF
T1 sequence (O60563 whole entry partner): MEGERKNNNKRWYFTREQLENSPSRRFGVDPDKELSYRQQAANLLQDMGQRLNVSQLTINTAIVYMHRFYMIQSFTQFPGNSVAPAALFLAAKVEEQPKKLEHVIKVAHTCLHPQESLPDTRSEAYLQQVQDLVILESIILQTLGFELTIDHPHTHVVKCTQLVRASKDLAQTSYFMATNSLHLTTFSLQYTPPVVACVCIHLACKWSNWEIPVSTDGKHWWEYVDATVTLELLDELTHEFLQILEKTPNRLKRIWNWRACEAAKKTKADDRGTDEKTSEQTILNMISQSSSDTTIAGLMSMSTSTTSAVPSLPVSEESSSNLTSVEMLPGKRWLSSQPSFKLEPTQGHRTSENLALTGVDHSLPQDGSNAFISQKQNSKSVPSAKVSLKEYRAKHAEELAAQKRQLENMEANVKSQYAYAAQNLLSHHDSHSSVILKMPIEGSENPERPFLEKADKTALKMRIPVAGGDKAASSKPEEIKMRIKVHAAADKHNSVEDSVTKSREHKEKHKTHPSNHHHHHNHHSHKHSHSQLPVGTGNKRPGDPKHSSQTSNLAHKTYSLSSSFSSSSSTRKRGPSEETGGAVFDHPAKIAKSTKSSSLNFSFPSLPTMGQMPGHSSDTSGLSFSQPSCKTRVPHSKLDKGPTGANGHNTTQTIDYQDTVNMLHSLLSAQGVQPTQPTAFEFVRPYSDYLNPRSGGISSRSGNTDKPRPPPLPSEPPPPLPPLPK

The term IC50 denotes the concentration that gives 50% inhibition. Low values mean greater potency in that assay, high ones weaker potency in that assay. Regarding `CS(=O)(Cc1cc2nc(c1)Nc1cc(c(F)cn1)-c1ccc(F)cc1OCCCCN2)=NC(=O)OCc1ccccc1` (racemic) [Example 2, (rac)-Benzyl[{[16,20-difluoro-3,4,5,6-tetrahydro-2H,12H-11,7-(azeno)-13,17-(metheno)-1,6,12,14-benzoxatriazacyclononadecin-9-yl]methyl}(methyl)oxido-λ^6-sulfanylidene]carbamate], the IC50 against CDK9/CycT1 is 12.7 nM; on CDK2/CycE, 8050 nM. Also, on CDK9/CycT1, the “Selectivity high ATP CDK9 over high ATP CDK2: IC50 (high ATP CDK2)/IC50 (high ATP CDK9)” value (“Selectivity high ATP CDK9” for short) is on record as 634.
The matching figures for `CN1CCCCOc2cc(F)ccc2-c2cc(ncc2F)Nc2cc(CS(C)(=N)=O)cc1n2` (racemic) [Example 11, (rac)-16,20-difluoro-6-methyl-9-[(S-methylsulfonimidoyl)methyl]-3,4,5,6-tetrahydro-2H-7,11-(azeno)-17,13-(metheno)-1,6,12,14-benzoxatriazacyclononadecine]: 2.6 nM, 80 nM and 31.
Turning to `CC(C)(C)OC(=O)N=S(C)(=O)Cc1cc2nc(c1)Nc1cc(c(F)cn1)-c1ccc(F)cc1OCCCCCN2` (racemic) [Example 9, (rac)-tert-butyl[{[17,21-difluoro-2,3,4,5,6,7-hexahydro-13H-12,8-(azeno)-14,18-(metheno)-1,7,13,15-benzoxatriazacycloicosin-10-yl]methyl}(methyl)oxido-λ^6-sulfanylidene]carbamate], at CDK9/CycT1, the half-inhibitory concentration (IC50) came to 6.8 nM and the “Selectivity high ATP CDK9” value was 37.2. The molecule further gave an IC50 on CDK2/CycE of 253 nM.
In the case of `CS(=N)(=O)Cc1cc2cc(c1)OCCCCNc1cc(F)ccc1-c1nc(ncc1F)N2` (racemic) [Example 16, (rac)-16,20-difluoro-9-[(S-methylsulfonimidoyl)methyl]-2,3,4,5-tetrahydro-1H-17,13-(azeno)-7,11-(metheno)-6,1,12,14-benzoxatriazacyclononadecine], at CDK9/CycT1, the IC50 came to 1.5 nM and the “Selectivity high ATP CDK9” value was 151. The molecule also showed an IC50 at CDK2/CycE of 227 nM.
In the case of `CSCc1cc2nc(c1)Nc1cc(c(F)cn1)-c1ccc(F)cc1OCCCN2` [Example 1, 15,19-Difluoro-8-[(methylsulfanyl)methyl]-2,3,4,5-tetrahydro-11H-10,6-(azeno)-12,16-(metheno)-1,5,11,13-benzoxatriazacyclooctadecine], at CDK9/CycT1, the IC50 was determined as 3.8 nM and the “Selectivity high ATP CDK9” value came out at 140. Besides, 531 nM corresponded to half-maximal inhibition against CDK2/CycE (IC50).
For the molecule `CC(C)(C)OC(=O)N=S(C)(=O)Cc1cc2cc(c1)OCCCNc1cc(F)ccc1-c1nc(ncc1F)N2` (racemic) [Example 13, (rac)-tert-butyl[{[15,19-difluoro-1,2,3,4-tetrahydro-16,12-(azeno)-6,10-(metheno)-5,1,11,13-benzoxatriazacyclooctadecin-8(11H)-yl]methyl}(methyl)oxido-λ^6-sulfanylidene]carbamate], the results for the IC50 on CDK9/CycT1 and on CDK2/CycE were 3 nM and 1280 nM, respectively. The “Selectivity high ATP CDK9” value on CDK9/CycT1 is 426.
For `C[S+]([O-])Cc1cc2nc(c1)OCCCCc1cc(F)ccc1-c1cc(ncc1F)N2` (racemic) [Example 5, (rac)-2,18-Difluoro-9-[(methylsulfinyl)methyl]-13,14,15,16-tetrahydro-6H-7,11-(azeno)-5,1-(metheno)-12,4,6-benzoxadiazacyclooctadecine], on CDK9/CycT1, inhibition was half-maximal at 6 nM (IC50) and the “Selectivity high ATP CDK9” value is reported as 1375. Further, at CDK2/CycE, 8250 nM corresponded to half-maximal inhibition (IC50).
For `C[S+]([O-])Cc1cc2nc(c1)OCCCCCc1cc(F)ccc1-c1cc(ncc1F)N2` (racemic) [Example 19, (rac)-2,19-difluoro-9-[(methylsulfinyl)methyl]-14,15,16,17-tetrahydro-6H,13H-7,11-(azeno)-5,1-(metheno)-12,4,6-benzoxadiazacyclononadecine], at CDK9/CycT1, the IC50 was found to be 17 nM and the “Selectivity high ATP CDK9” value is on record as 82.9. This molecule had an IC50 on CDK2/CycE of 1410 nM.
On to `CN1CCCCOc2cc(F)ccc2-c2nc(ncc2F)Nc2cc(CS(C)(=N)=O)cc1c2` (racemic) [Example 23, (rac)-16,20-difluoro-6-methyl-9-[(S-methylsulfonimidoyl)methyl]-3,4,5,6-tetrahydro-2H,12H-13,17-(azeno)-11,7-(metheno)-1,6,12,14-benzoxatriazacyclononadecine], for which the IC50 at CDK9/CycT1 amounted to 2.1 nM; against CDK2/CycE it was 1320 nM. In addition, at CDK9/CycT1, the “Selectivity high ATP CDK9” value worked out at 629.
For `CC(C)(C)OC(=O)N=S(C)(=O)Cc1cc2cc(c1)OCCCCNc1cc(F)ccc1-c1nc(ncc1F)N2` (racemic) [Example 15, (rac)-tert-butyl[{[16,20-difluoro-2,3,4,5-tetrahydro-1H,12H-13,17-(azeno)-11,7-(metheno)-6,1,12,14-benzoxatriazacyclononadecin-9-yl]methyl}(methyl)oxido-λ^6-sulfanylidene]carbamate] the same measures were 4.7 nM, 3350 nM and 713.
For `CC(C)(C)OC(=O)N=S(C)(=O)Cc1cc2cc(c1)OCCCCSc1cc(F)ccc1-c1nc(ncc1F)N2` (racemic) [Example 21, (rac)-tert-butyl[{[16,20-difluoro-2,3,4,5-tetrahydro-12H-17,13-(azeno)-11,7-(metheno)-6,1,12,14-benzoxathiadiazacyclononadecin-9-yl]methyl}(methyl)oxido-λ^6-sulfanylidene]carbamate] the same measures were 13 nM, 11900 nM and 915.
